A word on the IC50: it is the midpoint of a concentration-inhibition curve.

For this experiment, the target named is human PAD4 (Homo sapiens (Human), UniProt Q9UM07). Kind of experiment: In Vitro PAD4 BAEE Biochemical Assay. As to conditions: geometric mean of multiple experiments. The gist of the method: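 Recombinant human PAD4 (His-SUMO tag removed, E. coli-expressed), 5 nM, preincubated with compound and 2 mM CaCl2 30 min at 25 °C in MOPS pH 7.6 with DTT; 3 mM BAEE added for 2 h at 25 °C, EDTA stop. Released ammonia detected by o-phthalaldehyde/DTT fluorescence (ex 405, em 535 nm).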
Sequence of human PAD4 (Q9UM07 2-663): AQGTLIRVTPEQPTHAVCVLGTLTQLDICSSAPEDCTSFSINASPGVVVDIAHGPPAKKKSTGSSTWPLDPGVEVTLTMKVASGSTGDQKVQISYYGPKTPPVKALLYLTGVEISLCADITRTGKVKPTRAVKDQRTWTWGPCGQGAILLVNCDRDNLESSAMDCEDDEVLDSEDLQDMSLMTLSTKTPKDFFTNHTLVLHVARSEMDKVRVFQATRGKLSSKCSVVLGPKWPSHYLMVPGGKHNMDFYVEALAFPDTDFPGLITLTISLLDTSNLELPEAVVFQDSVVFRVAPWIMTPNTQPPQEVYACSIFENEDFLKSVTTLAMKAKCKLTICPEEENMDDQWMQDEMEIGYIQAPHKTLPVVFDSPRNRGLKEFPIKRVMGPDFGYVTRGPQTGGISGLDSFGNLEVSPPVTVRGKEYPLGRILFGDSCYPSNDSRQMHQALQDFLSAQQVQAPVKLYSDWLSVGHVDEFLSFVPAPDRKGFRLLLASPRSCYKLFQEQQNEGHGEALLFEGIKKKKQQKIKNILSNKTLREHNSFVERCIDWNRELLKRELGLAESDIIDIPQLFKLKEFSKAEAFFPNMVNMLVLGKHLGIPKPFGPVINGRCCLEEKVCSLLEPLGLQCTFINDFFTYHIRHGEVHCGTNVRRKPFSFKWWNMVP

The mark [1] stands for this setting: human PAD4, BAEE substrate, 5 nM PAD4, 2 mM calcium chloride, 3 mM BAEE.
[2] abbreviates: recombinant PAD4 5 nM, 2 mM calcium chloride, 3 mM BAEE substrate.

In the case of `COc1cc(C(=O)N2C[C@H](N)CCN2C)cc2nc(-c3cc4ccc([C@@H](C)NC(=O)Cc5ccccc5)nc4n3CC3CC3)n(C)c12` [Example 158, N-((R)-1-(2-(5-((R)-5-amino-2-methylhexahydropyridazine-1-carbonyl)-7-methoxy-1-methyl-1H-benzo[d]imidazol-2-yl)-1-(cyclopropylmethyl)-1H-pyrrolo[2,3-b]pyridin-6-yl)ethyl)-2-phenylacetamide], under setting [1], the concentration for half-maximal inhibition (IC50) amounted to 0.0762 µM.

As for `COc1cc(C(=O)N2C[C@H](N)CC[C@@H]2C)cc2nc(-c3cc4ccc(-c5c(C)ccnc5-c5cnc(C)s5)nc4n3CC3CC3)n(C)c12` [Example 268, ((2S,5R)-5-amino-2-methylpiperidin-1-yl)(2-(1-(cyclopropylmethyl)-6-(4-methyl-2-(2-methylthiazol-5-yl)pyridin-3-yl)-1H-pyrrolo[2,3-b]pyridin-2-yl)-7-methoxy-1-methyl-1H-benzo[d]imidazol-5-yl)methanone], under setting [1], the IC50 came to 0.386 µM. The same measure, in the same setting: the result for `COc1cc(C(=O)N2C[C@H](N)CCN2C)cc2nc(-c3cc4ccc([C@@H](C)NC(=O)c5cccc(F)c5C)nc4n3CC3CC3)n(C)c12` [Example 212, N-((R)-1-(2-(5-((R)-5-amino-2-methylhexahydropyridazine-1-carbonyl)-7-methoxy-1-methyl-1H-benzo[d]imidazol-2-yl)-1-(cyclopropylmethyl)-1H-pyrrolo[2,3-b]pyridin-6-yl)ethyl)-3-fluoro-2-methylbenzamide] reads 0.17 µM. Still for that read-out and setting: the result for `COc1cc(C(=O)N2CCC[C@@H](N)C2)cc2nc(-c3cc4ccc([C@@H](C)NC(=O)C56CC(F)(C5)C6)nc4n3CC3CC3)n(C3CC3)c12` [Example 125, N-((R)-1-(2-(5-((R)-3-aminopiperidine-1-carbonyl)-1-cyclopropyl-7-methoxy-1H-benzo[d]imidazol-2-yl)-1-(cyclopropylmethyl)-1H-pyrrolo[2,3-b]pyridin-6-yl)ethyl)-3-fluorobicyclo[1.1.1]pentane-1-carboxamide] reads 0.0713 µM.

Regarding `COc1cc(C(=O)N2C[C@H](N)[C@@H]3CC[C@H]2C3)cc2nc(-c3cc4ccc([C@@H](C)NC(=O)[C@@H]5CC5(F)F)nc4n3CC3CC3)n(C)c12` [Example 311, (S)-N-((R)-1-(2-(5-((1S,4R,5R)-4-amino-2-azabicyclo[3.2.1]octane-2-carbonyl)-7-methoxy-1-methyl-1H-benzo[d]imidazol-2-yl)-1-(cyclopropylmethyl)-1H-pyrrolo[2,3-b]pyridin-6-yl)ethyl)-2,2-difluorocyclopropane-1-carboxamide], the half-inhibitory concentration (IC50) under setting [2] is 0.0676 µM.

Take `COc1cc(C(=O)N2C[C@H](N)[C@@H]3CC[C@H]2C3)cc2nc(-c3cc4ccc([C@@H](C)NC(=O)c5ccccc5OC(F)(F)F)nc4n3CC3CC3)n(C)c12` [Example 294, N-((R)-1-(2-(5-((1S,4R,5R)-4-amino-2-azabicyclo [3.2.1]octane-2-carbonyl)-7-methoxy-1-methyl-1H-benzo[d]imidazol-2-yl)-1-(cyclopropylmethyl)-1H-pyrrolo[2,3-b]pyridin-6-yl)ethyl)-2-(trifluoromethoxy)benzamide]: the IC50 under setting [2] amounted to 0.277 µM. Consider `COc1cc(C(=O)N2C[C@H](N)CCN2C)cc2nc(-c3cc4ccc([C@@H](C)NC(=O)C56CC(C(F)(F)F)(C5)C6)nc4n3CC3CC3)n(C)c12` [Example 188, N-((R)-1-(2-(5-((R)-5-amino-2-methylhexahydropyridazine-1-carbonyl)-7-methoxy-1-methyl-1H-benzo[d]imidazol-2-yl)-1-(cyclopropylmethyl)-1H-pyrrolo[2,3-b]pyridin-6-yl)ethyl)-3-(trifluoromethyl)bicyclo [1.1.1]pentane-1-carboxamide], for which the half-maximal inhibitory concentration (IC50) under setting [1] stood at 0.149 µM.

For the molecule `COc1cc(C(=O)N2C[C@H](N)CC[C@@H]2C)cc2nc(-c3cc4ccc(-c5cc6cn[nH]c6cc5C)nc4n3CC3CC3)n(C)c12` [Example 256, ((2S,5R)-5-amino-2-methylpiperidin-1-yl)(2-(1-(cyclopropylmethyl)-6-(6-methyl-1H-indazol-5-yl)-1H-pyrrolo[2,3-b]pyridin-2-yl)-7-methoxy-1-methyl-1H-benzo[d]imidazol-5-yl)methanone], the IC50 under setting [1] came out at 1.33 µM. The same measure, in the same setting: then `CCN(C(=O)OC)c1ccc2cc(-c3nc4cc(C(=O)N5CCC[C@@H](N)C5)ccc4n3C3CC3)n(CC3CC3)c2n1` [Example 113, (R)-methyl (2-(5-(3-aminopiperidine-1-carbonyl)-1-cyclopropyl-1H-benzo[d]imidazol-2-yl)-1-(cyclopropylmethyl)-1H-pyrrolo[2,3-b]pyridin-6-yl)(ethyl)carbamate], with 0.196 µM; and `COc1cc(C(=O)N2C[C@H](N)CCN2C)cc2nc(-c3cc4ccc([C@@H](C)NC(=O)c5c(C)cccc5C)nc4n3CC3CC3)n(C)c12` [Example 172, N-((R)-1-(2-(5-((R)-5-amino-2-methylhexahydropyridazine-1-carbonyl)-7-methoxy-1-methyl-1H-benzo[d]imidazol-2-yl)-1-(cyclopropylmethyl)-1H-pyrrolo[2,3-b]pyridin-6-yl)ethyl)-2,6-dimethylbenzamide], with 0.147 µM; and `COc1cc(C(=O)N2CCC[C@@H](N)C2)cc2nc(-c3cc4ccc(N5CCCS5(=O)=O)nc4n3CC3CC3)n(C)c12` [Example 96, (R)-(3-aminopiperidin-1-yl)(2-(1-(cyclopropylmethyl)-6-(1,1-dioxidoisothiazolidin-2-yl)-1H-pyrrolo[2,3-b]pyridin-2-yl)-7-methoxy-1-methyl-1H-benzo[d]imidazol-5-yl) methanone], with 1.05 µM.

For `COc1cc(C(=O)N2CCC[C@@H](N)C2)cc2nc(-c3cc4ccc(N(C)C(=O)N(C)C)nc4n3CC3CC3)n(C)c12` [Example 117, (R)-1-(2-(5-(3-aminopiperidine-1-carbonyl)-7-methoxy-1-methyl-1H-benzo[d]imidazol-2-yl)-1-(cyclopropylmethyl)-1H-pyrrolo[2,3-b]pyridin-6-yl)-1,3,3-trimethylurea], under setting [1], the IC50 stood at 1.12 µM.

Take `COc1cc(C(=O)N2C[C@H](N)[C@@H]3CC[C@H]2C3)cc2nc(-c3cc4ccc([C@@H](C)NC(=O)C5CC(F)(F)C5)nc4n3CC3CC3)n(C)c12` [Example 228, N-((R)-1-(2-(5-((1S,4R,5R)-4-amino-2-azabicyclo[3.2.1]octane-2-carbonyl)-7-methoxy-1-methyl-1H-benzo[d]imidazol-2-yl)-1-(cyclopropylmethyl)-1H-pyrrolo[2,3-b]pyridin-6-yl)ethyl)-3,3-difluorocyclobutane-1-carboxamide]: the IC50 under setting [1] was 0.0823 µM. Regarding `COc1cc(C(=O)N2C[C@H](N)[C@@H]3CC[C@H]2C3)cc2nc(-c3cc4ccc([C@@H](C)NC(=O)[C@@]5(C)CC5(F)F)nc4n3CC3CC3)n(C)c12` [Example 332, (R)-N-((R)-1-(2-(5-((1S,4R,5R)-4-amino-2-azabicyclo[3.2.1]octane-2-carbonyl)-7-methoxy-1-methyl-1H-benzo[d]imidazol-2-yl)-1-(cyclopropylmethyl)-1H-pyrrolo[2,3-b]pyridin-6-yl)ethyl)-2,2-difluoro-1-methylcyclopropane-1-carboxamide], under setting [2], the IC50 is 0.0842 µM. Regarding `COc1cc(C(=O)N2C[C@H](N)CCN2C)cc2nc(-c3cc4ccc([C@@H](C)NC(=O)C5(c6ccccc6)CC5)nc4n3CC3CC3)n(C)c12` [Example 160, N-((R)-1-(2-(5-((R)-5-amino-2-methylhexahydropyridazine-1-carbonyl)-7-methoxy-1-methyl-1H-benzo[d]imidazol-2-yl)-1-(cyclopropylmethyl)-1H-pyrrolo[2,3-b]pyridin-6-yl)ethyl)-1-phenylcyclopropane-1-carboxamide], the IC50 under setting [1] came to 0.481 µM. For the molecule `COc1cc(C(=O)N2C[C@H](N)[C@@H]3CC[C@H]2C3)cc2nc(-c3cc4ccc([C@@H](C)NC(=O)C56CC(F)(C5)C6)nc4n3CC3(F)CC3)n(C)c12` [Example 291, N-((R)-1-(2-(5-((1S,4R,5R)-4-amino-2-azabicyclo[3.2.1]octane-2-carbonyl)-7-methoxy-1-methyl-1H-benzo[d]imidazol-2-yl)-1-((1-fluorocyclopropyl)methyl)-1H-pyrrolo[2,3-b]pyridin-6-yl)ethyl)-3-fluorobicyclo[1.1.1] pentane-1-carboxamide], the IC50 under setting [2] is 0.0919 µM. Take `COc1cc(C(=O)N2C[C@H](N)CC[C@@H]2C)cc2nc(-c3cc4ccc(-c5ccc6[nH]ncc6c5C)nc4n3CC3CC3)n(C)c12` [Example 257, ((2S,5R)-5-amino-2-methylpiperidin-1-yl)(2-(1-(cyclopropylmethyl)-6-(4-methyl-1H-indazol-5-yl)-1H-pyrrolo[2,3-b]pyridin-2-yl)-7-methoxy-1-methyl-1H-benzo[d]imidazol-5-yl)methanone]: the half-maximal inhibitory concentration (IC50) under setting [1] was 1.36 µM.

`COc1cc(C(=O)N2C[C@H](N)CC[C@@H]2C)cc2nc(-c3cc4ccc(-c5ccc(N6CCC6)nc5C)nc4n3CC3CC3)n(C)c12` [Example 260, ((2S,5R)-5-amino-2-methylpiperidin-1-yl)(2-(6-(6-(azetidin-1-yl)-2-methylpyridin-3-yl)-1-(cyclopropylmethyl)-1H-pyrrolo[2,3-b]pyridin-2-yl)-7-methoxy-1-methyl-1H-benzo[d]imidazol-5-yl)methanone]: the IC50 under setting [1] worked out at 0.364 µM. For `COc1cc(C(=O)N2[C@H]3CC[C@@H]2[C@H](N)C3)cc2nc(-c3cc4ccc([C@@H](C)NC(=O)C(C)(C)OC)cc4n3CC3CC3)n(C)c12` [Example 140, N-((R)-1-(2-(5-((1R,2R,4S)-2-amino-7-azabicyclo[2.2.1]heptane-7-carbonyl)-7-methoxy-1-methyl-1H-benzo[d]imidazol-2-yl)-1-(cyclopropylmethyl)-1H-indol-6-yl)ethyl)-2-methoxy-2-methylpropanamide], the IC50 under setting [1] came to 0.0261 µM.

Source of the values: US11878965B2, “Inhibitors of peptidylarginine deiminases” (Gilead Sciences, Inc., priority 2020, dated 2024).
